Test results: ChEMBL document CHEMBL3507680, “University of Dundee, Gates Library screen for HepG2 cell viability”

Assay: Human HepG2 cell viability assay in 384 well format
Format: toxicity, cell-based
Set-up: dose 125 nL, time 70.5 hour; cytotoxicity at 70.5 h: concentration not given beside the values
Details: HepG2 cells, read-out: Inhibition

Row | Structure (SMILES) | cytotoxicity at 70.5 h [%]
1 | CNc1ncc(CN(C)C(=O)c2ccc(C3CCCO3)s2)cn1 (centres undefined) | -3.31
2 | COc1ncccc1C1CC(=O)NCc2nc3ccccn3c21 (centres undefined) | 1.55
3 | CCN(CC)CCCNc1nccc(-c2cn(C)nc2C)n1 | -3.41
4 | CN(C)c1nc2c(c(N(C)Cc3n[nH]c4c3CCCC4)n1)CCNCC2 | -7.02
5 | Cc1cc2ccccc2n1CCC(=O)NCCCc1nnc(N)s1 | 33.9
6 | Cc1nc[nH]c1CN1CCn2nc(CN3Cc4ccccc4C3)cc2C1 | -7.32
7 | Cc1ccccc1C(C(=O)NCc1nc(-c2ncccn2)no1)N(C)C (centres undefined) | -6.36
8 | CCN(CC1CCCN(CCc2cccc(OC)c2)C1)C(=O)CSC (centres undefined) | -8.89
9 | CCc1ccccc1CN1CCn2nc(CNC(C)=O)cc2C1 | 59.7
10 | O=C1CCC2(CCOC2)CN1Cc1nncn1CCc1ccccc1 (centres undefined) | 4.96
11 | CCN1CCC(CC(=O)NCCc2nc(C)cc(C)n2)CC1 | -3.38
12 | N[C@H]1CN(C(=O)c2ccccc2OCc2ccccc2)C[C@@H]1C1CC1 | -11.7
13 | O=C(NC1CCc2ccccc2C1)C1CCN(Cc2ccco2)CC1 (centres undefined) | -2.67
14 | Cc1cc(C)cc(CN2CCN(C(=O)C3CCC3)[C@@H]3CS(=O)(=O)C[C@@H]32)c1 | -5.88
15 | O=S(=O)(NCc1ccccc1)Nc1ccc(-n2cncn2)cc1 | -5.87
16 | CCc1nc(CNc2nc3c(s2)c(C)nn3C)cs1 | -3.7
17 | CC(C)=CCN1CCC2(CC1)c1ccccc1[C@@H](N1CCSCC1)[C@@H]2O | -4.97
18 | Cc1cc(CN2CCC(CNC(=O)c3noc4c3CCCC4)C2)[nH]n1 (centres undefined) | 13.3
19 | CCCN1CCN(C(=O)c2cccc(C)n2)[C@H]2CS(=O)(=O)C[C@H]21 | 14.2
20 | CCS(=O)(=O)N1CCOC(CCCc2ccccc2)C1 (centres undefined) | 5.87
21 | CN1[C@H](CO)C[C@H](CNCc2ccc(CO)o2)[C@@H]1c1ccccc1F | -4.51
22 | NCC1CN(C(=O)c2cccc(-n3cccn3)c2)CCO1 (centres undefined) | 5.52

Row | Structure (SMILES) | cytotoxicity at 70.5 h [%]
23 | O=C(c1cc(-c2ccc(O)cc2)n[nH]1)N1CCCC1c1cccnc1 (centres undefined) | 0.428
24 | Cc1cnc(C(=O)N2C[C@H]3CC[C@@H]2CN(S(=O)(=O)N(C)C)C3)cn1 | -7.71
25 | CCCn1cc(S(=O)(=O)N[C@H]2CN(C(C)=O)C[C@@H]2C2CC2)cn1 | -1.84
26 | Cc1ccc(C(C(=O)O)N(C)CCCN2CCOCC2)c(C)c1 (centres undefined) | -8.61
27 | CCC[C@@H]1CN(Cc2ccccc2OC(F)(F)F)C[C@H]1NC(C)=O | -20
28 | CCNC(=O)Cc1ccc(-c2cccc3c2CCNC3)cc1 | -17.3
29 | Cc1nnc(SCCNC(=O)c2cc(S(N)(=O)=O)ccc2F)s1 | -5.1
30 | COCc1ncc(CN2CCC3(CCNCC3)CC2)cn1 | -2.36
31 | CCC1CN(C(=O)c2cc(CN(C)CCc3ccccc3)on2)CCO1 (centres undefined) | -7.15
32 | CC(C)N(C)S(=O)(=O)c1ccc2c(c1)CCN(C(=O)c1cscn1)C2 | -20.3
33 | O=C(NC1CCCN(c2ncccn2)C1)c1cn2ccccc2n1 (centres undefined) | -6.6
34 | Cc1ccc2oc(=O)n(CCC(=O)N3CCC4(CN(C)C(=O)O4)C3)c2c1 (centres undefined) | -1.59
35 | Cc1nn(C)c(C)c1-c1ccnc(N2CCCN(CC(C)C)CC2)n1 | 4.01
36 | Cc1nn(C(C)C)c(C)c1CN1CCC(c2cc(C(C)C)n[nH]2)CC1 | -0.772
37 | CCn1ccnc1CN1CCCn2nc(CNC(=O)C3CCC3)cc2C1 | -7.76
38 | Cc1ccncc1C(=O)N1C[C@@H]2CN(c3ncccn3)C[C@]2(C(=O)O)C1 | -5.72
39 | O=C(Cn1ncc(N2CCNCC2)cc1=O)NCCc1ccc(F)cc1 | -3.8
40 | O=C(N1CCOCC1)N1C[C@H]2CC[C@@H]1CN(C1Cc3ccccc3C1)C2 | 5.2
41 | O=C1CN(C(=O)CC2C(=O)NCCN2CC2CCCCC2)CCN1 (centres undefined) | 28.9
42 | Cc1nc(CN(C)C(=O)c2cccc(CC3CCNCC3)c2)no1 | 26.4
43 | CCCS(=O)(=O)N1CCC2(CCC(=O)N(CCc3ccncc3)C2)CC1 | -9.81
44 | CCN1CCC(c2nnc(CN3CCCC3)n2C2CC2)CC1 | -9.82

Row | Structure (SMILES) | cytotoxicity at 70.5 h [%]
45 | COCc1cc(CNC(=O)c2c(O)cccc2O)n[nH]1 | -1.82
46 | CC(=O)N1CC2(CCN(c3ccc4ccccc4n3)CC2)CC1C(=O)O (centres undefined) | 4.97
47 | NC(=O)c1cc2c(nc1-c1ccc3c(c1)CCO3)CCC2 | -5.32
48 | O=C(c1cc(=O)n(-c2ccccc2)[nH]1)N1CCOC(C(F)(F)F)C1 (centres undefined) | 5.57
49 | CN1CCC(Cc2noc(-c3cn(Cc4ccccc4Cl)nn3)n2)CC1 | 0.52
50 | Cc1cc(CN2CCN(CC3CC3)[C@@H]3CS(=O)(=O)C[C@@H]32)ccc1F | 6.58
51 | Cc1cc(C[C@@H]2COC[C@@H]2NC(=O)CCN2Cc3ccccc3C2)on1 | 11.4
52 | c1cc(CN2CCC(Cc3noc(C4CC4)n3)CC2)c2c(c1)OCO2 | 0.325
53 | O=C(COCc1ccccc1)N1CCCC(OCc2cccnc2)C1 (centres undefined) | 15.5
54 | c1csc(CN2CCCN(c3ccc(Cn4ccnc4)cn3)CC2)c1 | -5.7
55 | CC(C)c1nc(CN(C)C(=O)c2ccc3c(c2)OCC(=O)N3)cs1 | -6.75
56 | CC(C)[C@@H]1CN(c2ncc(F)cn2)C[C@H]1NS(=O)(=O)N(C)C | 15.6
57 | CN1CCC(N(C)CCC(=O)N2CCC(Cc3ccc(F)cc3)CC2)C1 (centres undefined) | 24.2
58 | Cc1nc(C2CCNCC2)cc(N2CCCC(C(=O)NCCCO)C2)n1 (centres undefined) | 10.6
59 | COCC(=O)N1CCN(S(=O)(=O)c2cccs2)[C@H]2CS(=O)(=O)C[C@H]21 | -7.15
60 | CSCCc1c(-c2ccccc2)ncn1CC(C)(C)N1CCOCC1 | -11.9
61 | O=C1CCCN1CCC1CCCCN1C(=O)c1ccc(SCCO)cc1 (centres undefined) | -6.58
62 | COc1ccc(NC(=O)CCC2CCCN(S(=O)(=O)C3CC3)C2)c(C)c1 (centres undefined) | -6.39
63 | CCN(Cc1ccc(O)c(C(=O)O)c1)CC1CCCO1 (centres undefined) | 24.1
64 | Cc1ccsc1CN(CCN(C)C)C(=O)c1ccc(C#N)nc1 | -8.67
65 | CCC(=O)N1CCN(C(=O)CCn2cc(Cl)cn2)[C@H]2CS(=O)(=O)C[C@H]21 | -5.55
66 | Cc1cnc(C)c(N2CCN(CCCc3[nH]nc(C)c3C)CC2)n1 | 1.19

Row | Structure (SMILES) | cytotoxicity at 70.5 h [%]
67 | CCc1n[nH]c(SCC(=O)N2C[C@@H]3CC[C@H](C2)N(CC=C(C)C)C3)n1 | 0.686
68 | COCC(=O)N1CCC(C(=O)N(C)CCCc2nccn2C)CC1 | 1.13
69 | CCN(Cc1noc(CC(C)C)n1)Cc1ccccc1C(=O)O | -6.37
70 | O=C(NC1CCCN(CCc2ccccc2)C1)c1cnccn1 (centres undefined) | -3.22
71 | CCC(C)Oc1ccc(CNCCNC(C)=O)cc1Cl (centres undefined) | -3.38
72 | Cc1nc(CN(C)Cc2csc(-c3cccs3)n2)co1 | 6.2
73 | Cc1nc2c(c(NCc3ccccc3)n1)CCN(C(=O)NC(C)C)CC2 | 30.7
74 | c1ccc(Cc2n[nH]c(C3CCOC3)n2)cc1 (centres undefined) | -3.76
75 | Cc1n[nH]c(C)c1CCNC(=O)Nc1ccc(S(C)(=O)=O)cc1 | -20
76 | CSCCC(=O)N1CCCCC1CCn1cccn1 (centres undefined) | -6.75
77 | Cc1nccn1CCC1CCCCN1Cc1cccc(CCN)c1 (centres undefined) | -1.82
78 | CN(C)C(Cn1ccnc1-c1nccn1C)c1ccccc1Cl (centres undefined) | -5.92
79 | Cc1nc[nH]c1CN1CCOC(CCNC(=O)c2ccsc2)C1 (centres undefined) | 2.08
80 | CN(Cc1ccsc1)Cc1nc(-c2ccncc2)no1 | 20.5
81 | Cc1ncsc1CCN(C)C(=O)CCc1nc2cccnc2n1C | -11.9
82 | CCC[C@@H]1CN(C(=O)c2cc(-c3cccs3)n(C)n2)C[C@H]1NS(C)(=O)=O | -4.08
83 | Cc1ccccc1C(CC(=O)NCc1n[nH]c(N)n1)c1ccccc1 (centres undefined) | -4.71
84 | Cc1nc(C(=O)N2CCC3(CC2)CC(=O)N(CC2CCCO2)C3)cs1 (centres undefined) | -9.89
85 | CSCCCN1CCc2nc(N(C)C)nc(N3CCC(O)CC3)c2C1 | -6.06
86 | Cc1nonc1CN1CC[C@@](O)(C2CCOCC2)[C@H](C)C1 | -11
87 | Cc1cc(CN2CCC(CNC(=O)Cc3ccc(F)cc3)C2)[nH]n1 (centres undefined) | -7.47
88 | CN(C)CCN1CC2(CCN(C(=O)c3cnccn3)CC2)OC1=O | -2.71

Row | Structure (SMILES) | cytotoxicity at 70.5 h [%]
89 | CC(=O)c1ccc(NC(=O)NC(C(=O)N(C)C)C(C)C)cc1 (centres undefined) | -4.29
90 | O=C1NCCCc2[nH]c(C3CCCN(C(=O)C4CC4)C3)nc21 (centres undefined) | -10.4
91 | c1cc(CN2CCC(CCn3cccn3)CC2)cc(Cn2cccn2)c1 | -2.62
92 | CC(C)N1CCC(CC(=O)N2CCN(Cc3nccn3C)CC2)CC1 | -6.78
93 | O=C(CCc1cc(Cl)no1)N1CCCCC1CCn1ccnc1 (centres undefined) | -5.27
94 | COC(=O)c1cc2n(n1)CCN(C(=O)c1csc(CN(C)C)n1)C2 | -12.3
95 | CCC[C@@H]1CN(Cc2c[nH]nc2-c2ccc(OC)cc2)C[C@H]1NC(C)=O | -7.5
96 | Cc1ccsc1CN(C)Cc1ncccc1C(=O)O | -2.01
97 | Cc1csc2c(N3CCNC(C(=O)Nc4ccc(F)cc4)C3)ncnc12 (centres undefined) | -9.29
98 | CCc1ccccc1CN1CCC(N2CCCC2=O)CC1 | -8.77
99 | CN(CCN1CCCCC1=O)Cc1cc2cc3c(cc2[nH]c1=O)OCO3 | -8.86
100 | COc1ncccc1C1CC(=O)Nc2cc(NS(C)(=O)=O)ccc21 (centres undefined) | -9.6
101 | N#CC1CCCN(S(=O)(=O)c2ccc(C(=O)NCC(F)F)cc2)C1 (centres undefined) | 3.7
102 | Cc1cccc(C(C(=O)NCc2cc(C)[nH]n2)N(C)C)c1 (centres undefined) | 7.18
103 | COc1cccc2c1OCC(C(=O)N1CCSCC1)C2 (centres undefined) | -8.37
104 | Cc1cccc(Cc2nc3c([nH]2)CCCNC3=O)c1 | -5.33
105 | Cc1nnsc1CN(C)C(=O)CCn1cnc2ccccc21 | -9.98
106 | Cc1ccsc1[C@@H]1CCN(C(=O)CCc2cc(O)no2)C[C@H]1O | -15.1
107 | CC(C)(C)C(=O)N[C@H]1CC[C@H](Nc2nccc(-c3ccncc3)n2)C1 | -6.97
108 | COc1c(C)cnc(CN2CCCCC2CCN2CCOCC2)c1C (centres undefined) | -11.7
109 | CN(C)C[C@@H]1CN(C(=O)c2cc(S(N)(=O)=O)ccc2F)C[C@@H]1CO | -4.5
